Experimental data published in article PMC10541198, “Specific quinone reductase 2 inhibitors reduce metabolic burden and reverse Alzheimer’s disease phenotype in mice” (The Journal of Clinical Investigation, 2023).
“And” between values parts separate entries of the source, which are not always exact repeats. Equal values may be shown once.

Tested on: 5xFAD mice
Assay: Novel object recognition in 5xFAD mice
Type: in vivo, mouse
Set-up: key: (novel − familiar)/(novel + familiar) exploration time, −1 to 1
Conditions: 5xFAD 1 month
Procedure: We next aimed to test the effect of QR2 inhibition in AD model mice using YB-537, taking advantage of its extremely high specificity, solubility, and lack of toxicity. First, we determined YB-537 pharmacokinetics (PK) and oral bioavailability and assessed any acute observable toxicity in mice. […] We therefore opted to chronically deliver YB-537 to AD-model mice via their drinking water, so they may freely ingest the inhibitor at 50 mg/kg, with minimal intervention or trauma, for 1 month. We chose 9-month-old 5xFAD ([27]) male and female mice in double-blind experiments, so that well-progressed symptoms and pathologies would be present, to mimic clinically relevant cases in human patients ([35]), as has been previously described in this mouse model. Other than an improvement in nest quality ([36]) over time seen in animals receiving YB-537 (starting at age 8 months and ending at age 9 months), no changes to general physical parameters or wellbeing were observed over the 1 month of YB-537 ingestion (Supplemental Figure 6, A–J). […] Since learning in this paradigm was slow, and performance was poor even following 6 days of training (using 4 learning trials a day), a test day was not carried out and instead only the learning rate was measured. […]
Following a 10 minute exploration of a 50 × 50 cm open-field arena, mice were returned to the arena the next day, which contained 2 identical objects. […] Mouse movement, exploration, and nuzzling was automatically recorded with an Ikegami ICD-49E camera with EthoVision 14 (Noldus Information Technology). Discrimination of the novel object was assessed by calculating (time exploring novel object – time exploring familiar object)/(time exploring novel object + time exploring familiar object). […]
Mice were individually placed within a cage and taken to a dimly lit room containing an open field arena 50 x 50 cm in size. […] Th e fl oor was ei ther whit e or black,dependingon mous e coat c ol or, to allow automatic analysisof movement par am et ers, apar t from rearing which was manually counted. […]

## Cc1ccc(-c2cn3cccc(C)c3n2)cc1S(=O)(=O)N1CCNCC1 [YB-537]
Both sexes
  novel object discrimination (individual mice): -0.101 and 0.504 and 0.236 and 0.249 and -0.330 and 0.874 and 0.145 and -0.163 and -0.038 and -0.010 and 0.265 and -0.414 and 0.439 and 0.710 and 0.259 and 0.231
females
  novel object discrimination (individual mice): 0.504 and 0.236 and 0.439 and 0.710 and 0.259 and 0.231 and -0.101
males
  novel object discrimination (individual mice): -0.038 and -0.010 and 0.265 and -0.414 and 0.249 and -0.330 and 0.874 and 0.145 and -0.163
